This note sets out measurements from patent US7781591B2, “Substituted 3-cyanopyridines as protein kinase inhibitors” (Wyeth LLC, priority 2006, dated 2010).

In this assay the target is T1, human PKCθ full length enzyme (Homo sapiens, UniProt Q04759).
T1 construct: human PKCθ full length enzyme (Panvera Cat# P2996); purchased Panvera P2996
T1 sequence (Q04759 whole entry): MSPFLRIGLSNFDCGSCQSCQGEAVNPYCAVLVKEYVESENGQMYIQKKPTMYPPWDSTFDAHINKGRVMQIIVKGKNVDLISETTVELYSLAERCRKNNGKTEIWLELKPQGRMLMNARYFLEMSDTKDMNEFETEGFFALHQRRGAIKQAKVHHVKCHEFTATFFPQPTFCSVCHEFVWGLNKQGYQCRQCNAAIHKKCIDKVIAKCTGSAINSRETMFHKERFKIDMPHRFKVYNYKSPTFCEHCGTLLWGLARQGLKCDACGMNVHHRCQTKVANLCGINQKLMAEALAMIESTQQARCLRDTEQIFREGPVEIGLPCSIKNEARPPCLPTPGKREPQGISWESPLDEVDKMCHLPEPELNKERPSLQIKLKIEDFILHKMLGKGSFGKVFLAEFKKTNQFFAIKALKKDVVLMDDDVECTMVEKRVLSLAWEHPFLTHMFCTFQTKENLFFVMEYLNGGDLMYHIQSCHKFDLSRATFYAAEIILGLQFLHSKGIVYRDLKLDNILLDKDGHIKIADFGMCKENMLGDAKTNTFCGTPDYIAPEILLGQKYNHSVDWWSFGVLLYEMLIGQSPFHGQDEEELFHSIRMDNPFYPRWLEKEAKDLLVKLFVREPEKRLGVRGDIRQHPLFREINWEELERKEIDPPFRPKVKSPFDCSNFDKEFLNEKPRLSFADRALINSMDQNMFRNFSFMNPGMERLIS
In words: PKCθ IMAP assay (fluorescence polarization). The assay is classed as biochemical. To be noted: human PKCθ full length enzyme, IMAP; average value; read-out: IC50 PKCθ IMAP. In general terms: Fluorescence polarisation rises when a labelled molecule tumbles more slowly, as on binding a larger partner.
By IC50 is commonly meant the concentration at which inhibition is half-maximal. For `Cc1c(Nc2c(C#N)cncc2-c2cccc3[nH]ccc23)ccc2[nH]ccc12` [Compound 595, 5-(1H-indol-4-yl)-4-(4-methyl-1H-indol-5-ylamino)nicotinonitrile], the IC50 came to 46 nM.

As for `CN(C)Cc1ccc(-c2cccc(-c3cncc(C#N)c3Nc3ccc4[nH]ccc4c3)c2)s1` [Compound 187, 5-(3-{5-[(dimethylamino)methyl]-2-thienyl}phenyl)-4-(1H-indol-5-ylamino)nicotinonitrile], the half-inhibitory concentration (IC50) was 110 nM.

Consider `N#Cc1cncc(-c2ccc(OCc3ccccc3)cc2)c1Nc1ccc2[nH]ccc2c1` [Compound 195, 5-[4-(benzyloxy)phenyl]-4-(1H-indol-5-ylamino)nicotinonitrile], for which the IC50 worked out at 250 nM.

Regarding `N#Cc1cncc(-c2cccs2)c1Nc1ccc2[nH]ccc2c1` [Compound 267, 4-(1H-indol-5-ylamino)-5-(2-thienyl)nicotinonitrile], the IC50 is 100 nM.

With `CN1CCN(CCOc2cccc(-c3cncc(C#N)c3Nc3cccc4[nH]ccc34)c2)CC1` [Compound 168, 4-(1H-indol-4-ylamino)-5-{3-[2-(4-methylpiperazin-1-yl)ethoxy]phenyl}nicotinonitrile], the IC50 was 20 nM.

As for `Cc1c(Nc2c(C#N)cncc2-c2ccc(CN(C)C)cc2)ccc2[nH]ccc12` [Compound 452, 5-{4-[(dimethylamino)methyl]phenyl}-4-[(4-methyl-1H-indol-5-yl)amino]nicotinonitrile], the IC50 came out at 8 nM.

As to `Cc1c(Nc2c(C#N)cncc2-c2ccc(CN3CCOCC3)o2)ccc2[nH]ccc12` [Compound 401, 4-[(4-methyl-1H-indol-5-yl)amino]-5-[5-(morpholin-4-ylmethyl)-2-furyl]nicotinonitrile], the half-maximal inhibitory concentration (IC50) turned out to be 8 nM.

As to `Cc1c(Nc2c(C#N)cncc2-c2ccc(OCCNCCCn3ccnc3)cc2)ccc2[nH]ccc12` [Compound 429, 5-[4-(2-{[3-(1H-imidazol-1-yl)propyl]amino}ethoxy)phenyl]-4-[(4-methyl-1H-indol-5-yl)amino]nicotinonitrile], the IC50 stood at 5 nM.

`Cc1c(Nc2c(C#N)cncc2-c2ccc(OCCN(C)C)cc2)cc(Cl)c2[nH]ccc12` [Compound 534, 4-[(7-chloro-4-methyl-1H-indol-5-yl)amino]-5-{4-[2-(dimethylamino)ethoxy]phenyl}nicotinonitrile]: the IC50 amounted to 17 nM.

With `N#Cc1cncc(-c2cc3cc(CN4CCNCC4)ccc3s2)c1Nc1cccc2[nH]ccc12` [Compound 359, 4-(1H-indol-4-ylamino)-5-[5-(piperazin-1-ylmethyl)-1-benzothien-2-yl]nicotinonitrile], the IC50 is 20 nM.

For the compound `Cc1c(Nc2c(C#N)cncc2-c2ccc(OCCN3CCN(c4ccccn4)CC3)cc2)ccc2[nH]ccc12` [Compound 430, 4-[(4-methyl-1H-indol-5-yl)amino]-5-{4-[2-(4-pyridin-2-ylpiperazin-1-yl)ethoxy]phenyl}nicotinonitrile], the IC50 came to 17 nM.

`COc1ccc(-c2cncc(C#N)c2Nc2ccc3c(c2)CCC3)cc1OC` [Compound 107, 4-(2,3-dihydro-1H-inden-5-ylamino)-5-(3,4-dimethoxyphenyl)nicotinonitrile]: the IC50 was determined as 9320 nM.

For the compound `Cc1c(Nc2c(C#N)cncc2-c2cccc(CN3CCOCC3)c2)ccc2[nH]ccc12` [Compound 456, 4-[(4-methyl-1H-indol-5-yl)amino]-5-[3-(morpholin-4-ylmethyl)phenyl]nicotinonitrile], the IC50 turned out to be 23 nM.

Consider `N#Cc1cncc(-c2ccoc2)c1Nc1ccc2[nH]ccc2c1` [Compound 262, 5-(3-furyl)-4-(1H-indol-5-ylamino)nicotinonitrile], for which the IC50 stood at 120 nM.

For the compound `COc1ccc(-c2cncc(C#N)c2Nc2cccc3c2CC(=O)N3)cc1OC` [Compound 329, 5-(3,4-dimethoxyphenyl)-4-[(2-oxo-2,3-dihydro-1H-indol-4-yl)amino]nicotinonitrile], the IC50 stood at 8210 nM.

On to `Cc1c(Nc2c(C#N)cncc2-c2ccc(OCCCN3CCCCC3)cc2)ccc2[nH]ccc12` [Compound 474, 4-[(4-methyl-1H-indol-5-yl)amino]-5-[4-(3-piperidin-1-ylpropoxy)phenyl]nicotinonitrile], for which the IC50 worked out at 13 nM.

Turning to `CCN(CC)Cc1ccc2oc(-c3cncc(C#N)c3Nc3cc4cc[nH]c4cc3C)cc2c1` [Compound 500, 5-{5-[(diethylamino)methyl]-1-benzofuran-2-yl}-4-[(6-methyl-1H-indol-5-yl)amino]nicotinonitrile], the IC50 was 5 nM.

On to `Cc1c(Nc2c(C#N)cncc2-c2cc3cc(C=O)ccc3o2)ccc2[nH]ccc12` [Compound 465, 5-(5-formyl-1-benzofuran-2-yl)-4-[(4-methyl-1H-indol-5-yl)amino]nicotinonitrile], for which the IC50 is 1 nM.

`Cc1c(Nc2c(C#N)cncc2-c2ccc(CN3CCC(N4CCCCC4)CC3)o2)ccc2[nH]ccc12` [Compound 403, 5-[5-(1,4′-bipiperidin-1′-ylmethyl)-2-furyl]-4-[(4-methyl-1H-indol-5-yl)amino]nicotinonitrile]: the IC50 came to 5 nM.

As for `COc1ccc(-c2cncc(C#N)c2Nc2ccc3[nH]ccc3c2)cc1OCCN1CCNCC1` [Compound 232, 4-(1H-indol-5-ylamino)-5-[4-methoxy-3-(2-piperazin-1-ylethoxy)phenyl]nicotinonitrile], the IC50 was determined as 200 nM.

`CC(=O)Nc1cccc(-c2cncc(C#N)c2Nc2ccc3[nH]ccc3c2C)c1` [Compound 578, N-(3-{5-cyano-4-[(4-methyl-1H-indol-5-yl)amino]pyridin-3-yl}phenyl)acetamide]: the IC50 was 97 nM.

For `COc1ccc(-c2cncc(C#N)c2Nc2ccc3[nH]ccc3c2)cc1-c1cccs1` [Compound 189, 4-(1H-indol-5-ylamino)-5-[4-methoxy-3-(2-thienyl)phenyl]nicotinonitrile], the IC50 came out at 30 nM.

On to `Cc1c(Nc2c(C#N)cncc2-c2coc(CN3CCN(C)CC3)c2)ccc2[nH]ccc12` [Compound 503, 4-[(4-methyl-1H-indol-5-yl)amino]-5-{5-[(4-methylpiperazin-1-yl)methyl]-3-furyl}nicotinonitrile], for which the IC50 came out at 12 nM.

For `N#Cc1cncc(-c2cc3cc(CNC(=O)CCN)ccc3s2)c1Nc1cccc2[nH]ccc12` [Compound 360, N-({2-[5-cyano-4-(1H-indol-4-ylamino)pyridin-3-yl]-1-benzothien-5-yl}methyl)-b-alaninamide], the half-maximal inhibitory concentration (IC50) is 2 nM.

Regarding `COc1ccc(-c2cncc(C#N)c2Nc2ccc3[nH]ccc3c2C)c(Cl)c1` [Compound 371, 5-(2-chloro-4-methoxyphenyl)-4-[(4-methyl-1H-indol-5-yl)amino]nicotinonitrile], the IC50 is 30 nM.

Consider `COc1ccc(-c2cncc(C#N)c2Nc2ccc3c(ccn3C)c2C)cc1OC` [Compound 555, 5-(3,4-dimethoxyphenyl)-4-[(1,4-dimethyl-1H-indol-5-yl)amino]nicotinonitrile], for which the IC50 worked out at 226 nM.

For the compound `N#Cc1cncc(-c2cccc3c2oc2ccccc23)c1Nc1cccc2[nH]ccc12` [Compound 319, 5-dibenzo[b,d]furan-4-yl-4-(1H-indol-4-ylamino)nicotinonitrile], the IC50 worked out at 60 nM.

As for `N#Cc1cncc(-c2cccc(-c3ccc(C(=O)NCCN4CCCC4)cc3)c2)c1Nc1ccc2[nH]ccc2c1` [Compound 203, 3′-[5-cyano-4-(1H-indol-5-ylamino)pyridin-3-yl]-N-(2-pyrrolidin-1-ylethyl)biphenyl-4-carboxamide], the IC50 worked out at 290 nM.
